Source: article PMC8018184, “Evaluation of the Pharmacophoric Role of the O–O Bond in Synthetic Antileishmanial Compounds: Comparison between 1,2-Dioxanes and Tetrahydropyrans” (Journal of Medicinal Chemistry, 2020)

What was measured:
[1] = test system: L. donovani promastigotes (MHOM/NP/02/BPK282/0cl4); assay: Promastigote growth inhibition assay (alamarBlue); format: cell-based, Leishmania donovani; settings: for IC50: Leishmania donovani, 72 h, alamarBlue, HOMEM 20% FBS, compounds as racemates, read-out: IC50 (concentration causing 50% growth inhibition) against promastigotes of L. donovani; for Selectivity index (SI) = CC50/IC50: Vero CC50 / IC50 on promastigotes
Method: The bioactivity of the new tetrahydropyrans 3 was initially evaluated against the extracellular promastigote forms of L. donovani (MHOM/NP/02/BPK282/0cl4) as the reference strain, indicative of the leishmaniasis in the Old World. The results were expressed as IC50, i.e., the concentration of the product required to inhibit the parasite growth by 50%. When a compound could inhibit the promastigote growth, its cytotoxicity was also evaluated on Vero cells (Table 1) and on THP-1 cells (see the Supporting Information, Table S3) and the corresponding selectivity indexes (SIs) were calculated. The performance of each tetrahydropyran 3 was compared with that of the corresponding endoperoxide 2 (Table 1).
Promastigotes of a L. donovani reference strain (MHOM/NP/02/BPK282/0cl4) were maintained at 26 °C in a liquid custom-made medium, HOMEM Cat. no: 1140-082 (Gibco Thermo Fisher Scientific Inc., Waltham, USA), complete composition: S-MEM (Eagle) 1 × 1 liter pack, glucose (1–2 g), sodium bicarbonate (0.3 g), sodium pyruvate (0.11 g), p-aminobenzoic acid (1 mg), biotin (0.1 mg), HEPES (4.77–5.96 g), MEM amino acids (10 mL), MEM nonessential amino acids (10 mL), pH 7.5–7.6, supplemented with 20% fetal bovine serum (FBS, EuroClone SpA, Milan, Italy)[123] and 1% penicillin–streptomycin (EuroClone SpA).
To evaluate the efficacy of the compounds on the extracellular forms of L. donovani, promastigotes in their late log/stationary phase were seeded with the complete HOMEM medium at 10^6 cells mL^–1 in 96-well plates and incubated with tested compounds at a range concentration of 600–1.6 μM in a 26 °C incubator for 72 h. The antileishmanial drug amphotericin B was used as the positive control, and untreated promastigotes were the negative control. Each experiment was performed in duplicate. Stock solution of the compounds was 8 mM in DMSO. […] The alamarBlue assay includes a colorimetric growth indicator based on detection of metabolic activity. Specifically, the system incorporates an oxidation–reduction (REDOX) indicator that changes color in response to chemical reduction of the growth medium resulting from cell growth. The method monitors the reducing environment of proliferating cells; the cell-permeable resazurin is added (nonfluorescent form, blue color) and, upon entering cells, is reduced to resorufin (fluorescent form, red color) as a result of cellular metabolic activity. Evaluation was performed by adding 20 μL of alamarBlue and incubating at 26 °C for 24 h. The reducing environment was evaluated after 24 h by absorbance measurement at the Multiskan ascent plate reader (Thermo Fisher Scientific Inc.) at 550 and 630 nm.

[2] = test system: ROS in L. donovani promastigotes; assay: Evaluation of intracellular ROS levels (H2DCFDA fluorescence); format: cell-based, Leishmania donovani; settings: for Intracellular ROS levels compared to negative control (untreated promastigotes): compound at its IC50, 24 h, H2DCFDA; for ROS production compared to positive controls: compound at its IC50, H2O2 20 μM, miltefosine 22 μM
Method: We evaluated the ability of our synthetic compounds to generate reactive oxygen species (ROS) in L. donovani promastigotes. We selected the endoperoxide 2a and the tetrahydropyran 3a as model substrates, which were administered to the parasites in the presence of 2,7-dichlorodihydrofluorescein diacetate (H2DCFDA), a live-cell-permeable dye, which is oxidized by ROS, providing a fluorescent compound (DCF) (see Experimental Section for details).[103] Therefore, the resultant fluorescence is a direct measure of the amount of ROS generated.
To monitor the effect of the compounds on the production of ROS in promastigotes of L. donovani, an oxidant-sensitive green fluorescent dye (2,7-dichlorofluorescein diacetate, H2DCFDA) was used. […] Subsequently, parasitic cells were washed in PBS (pH 7.4), loaded with 10 μM permeant probe H2DCFDA (Sigma, St. Louis, MO, USA), and incubated in the dark for 35 min at 26 °C.[103] H2O2 (20 μM)[124] and miltefosine (22 μM)[125] were used as positive controls. Each experiment was performed in triplicate. Reactive oxygen species (ROS) production was measured as an increase in fluorescence caused by the conversion of nonfluorescent dye to highly fluorescent 2,7-dichlorofluorescein, with an excitation wavelength of 488 nm and an emission wavelength of 530 nm. Plates were read by employing a fluorescence microplate reader Varioskan Flash (Thermo Fisher Scientific Inc.).

[3] = Cytotoxicity test on THP-1 cells (alamarBlue); format: cell-based; settings: human, THP-1 cells (acute monocytic leukemia cell line); CSV supplement; read-out: CC50 against human acute monocytic leukemia cell line (THP-1)
Method: Vero cells (kidney of African green monkey epithelial cell line) were cultured at 37 °C in the MEM liquid medium supplemented with 10% FBS (EuroClone SpA), 1% levoglutamine (EuroClone SpA), and 1% penicillin–streptomycin (EuroClone SpA). THP-1 cells (human leukemia monocytic cell line) were cultured at 37 °C in the RPMI 1640 (EuroClone SpA) liquid medium supplemented with 10% FBS (EuroClone SpA), 1% levoglutamine (EuroClone SpA), 1% penicillin–streptomycin, and mercaptoethanol (Gibco) 50 μM.
The cytotoxicity of the compounds was determined using mammalian kidney epithelial cells (Vero cell line) and human acute monocytic leukemia cell line (THP-1). Cells were seeded (10^5 cells mL^–1) on 96-well plates with the complete MEM medium and incubated with test compounds at 37 °C in a 5% CO2 incubator. After 72 h of incubation, 20 μL of the alamarBlue reagent was added to each well and incubated at 37 °C for 24 h. Reduction of resazurin to resorufin was evaluated after 24 h by absorbance measurement at the Multiskan ascent plate reader (Thermo Fisher Scientific Inc.,) at 550 and 630 nm. […] Each experiment was performed in duplicate.
Cytotoxicity in THP-1 cell line
We performed additional cytotoxicity tests employing THP-1 cell line. We also calculated the
corresponding selectivity indexes, as the ratio between CC50 of THP-1 cell line and IC50 on amastigotes
THP-1 cells than on VERO cells; thus showing a not significant variance of selectivity index.
Table S3. Inhibitory activity of tetrahydropyrans 3 and endoperoxides 2 against amastigotes of L.
donovani, cytotoxicity in human acute monocytic leukemia cell line (THP-1) and selectivity index (SI).
Tetrahydropyran IC50 CC50 Endoperoxide IC50 CC50
a (µM)b (µM)c a (µM)b (µM)c
a Compounds tested as racemates. b IC50 represents the concentration of a compound that causes 50% growth inhibition.
Results represent the mean (± standard deviation, SD) of three independent experiments performed in duplicate. c CC50
represents 50% cytotoxic concentration on THP-1 cells. d Selectivity index (SI) = CC50/IC50. […]

SMILES	IC50 [1] [µM]	Selectivity index (SI) = CC50/IC50 [1]	Intracellular ROS levels compared to negative control (untreated promastigotes) [2]	ROS production compared to positive controls [2]	CC50 at 72 h [3] [µM]
CCCCC1(CCCC)CO[C@@](C)(OC)[C@@H](CNCCCn2ccnc2)C1 (racemic) [3a, N-((5,5-Dibutyl-2-methoxy-2-methyltetrahydro-2H-pyran-3-yl)methyl)-3-(1H-imidazol-1-yl)propan-1-amine]	3.4 ± 0.4	10.4	increase in the intracellular ROS levels	higher ROS production when compared to H2O2	26
CCCCC1(CCCC)C[C@H](CNCCCn2ccnc2)[C@](C)(OC)OO1 [2a]	7.5 ± 1.7	9.6	increase in the intracellular ROS levels	lower fluorescence intensity when compared to H2O2 and miltefosine	86
